Reference: patent US9040501B2, “Compositions and methods for treating cancer” (Eisai Inc., priority 2009, dated 2015)

Columns and labels:
[1] = system: A2780 human ovarian cancer xenograft; experiment: In vivo efficacy study in A2780 human ovarian cancer xenograft model; design: species or system female nude mice; conditions: qdx5 for two weeks
Protocol: Animals were dosed daily from Monday to Friday for two weeks.
Female nude mice (NU/NU, strain code 088, 6 weeks old, Charles River Laboratory) were implanted subcutaneously with 5×10^6 A2780 cancer cells per mouse. On day 13 when the tumors were approximately 150 mm^3, treatment started as described in Table 9.
Tumor volume and regressions were followed over time. Tumor volume was calculated by (length×width^2)/2. Note that a complete regression was defined as no measurable tumor for at least 3 consecutive measurements; while a partial regression was defined as tumor shrinkage to equal or less than 50% of original tumor volume for 3 consecutive measurements. Tumor growth delay (TGD) was defined as the median number of days for the control and treatment groups to grow to 342.14 mm^3. The average tumor volume on the first day of treatment (day 13) is 171.07 mm^3.

[2] = biological target: cytidine deaminase (CDA) (Homo sapiens (Human), UniProt P32320); experiment: Effect of ER-876437 on the half-life of gemcitabine in the presence of CDA in Tris-HCl buffer at 37° C.; format: biochemical
Protocol: This Example employed a Phenomenex Luna C18(2) HPLC column (100 Å 4.6×250 mm 5 μm). The solvent delivery system employed an HPLC quaternary pump, low pressure mixing. An autosampler having a variable loop, 0.1 to 100 μL range and temperature controlled thermostat was used. The UV detector can employ a dual wavelength detector, a diode array detector, a variable wavelength detector or equivalent, and can be recorded using chromatographic software (e.g., Waters Empower 2 Build 2154, Agilent ChemStation software version A.09.03 or higher for HPLC or equivalent). The analytical balance employed was capable of weighing ±0.1 mg. Degassed HPLC grade water and degassed HPLC grade acetonitrile were used as solvents for the mobile phases.
Gemcitabine Standard Control: 0.2 mM gemcitabine control was prepared by weighing […] of gemcitabine in a 10 mL volumetric flask. […] Solution was labeled as gemcitabine stock solution.

[3] = system: murine lymphoma L1210; conditions: ER-876437 10 mg/kg/Veh
Protocol: Or, a stock of L1210 ascites in BSA solution was diluted to 1×10^4 cells/0.1 ml for use in the study mice.
The mice were prepared with intravenous (IV) injection of L1210 ascites (prepared as described above) one day prior to commencing the dosing. […] The total IV injection for all mice took about 50 minutes.
All solutions were stored on ice while dosing. Mice were dosed (intraperitoneally (IP) or per os (orally, PO)) twice a day (8 hours apart) for 4 consecutive days.
Dead mice were autopsied and observed for the presence of tumors in organs.

cytidine deaminase (CDA), sequence (P32320 whole entry): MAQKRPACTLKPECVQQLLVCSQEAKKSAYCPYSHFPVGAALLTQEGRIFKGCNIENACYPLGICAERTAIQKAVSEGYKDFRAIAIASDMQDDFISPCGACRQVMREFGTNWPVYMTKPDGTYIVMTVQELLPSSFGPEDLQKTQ

SMILES: O=C1NCC=CCN1[C@@H]1O[C@H](CO)[C@@H](O)C1(F)F [ER-876437, 1-((2R,4R,5R)-3,3-difluoro-4-hydroxy-5-(hydroxymethyl)tetrahydrofuran-2-yl)-3,4-dihydro-1H-1,3-diazepin-2(7H)-one]
- regressions or tumor free survivors at day 41 ([1]; gemcitabine 1 mg/kg PO alone or ER-876437 10 mg/kg PO alone): no regressions or tumor free survivors
- effect on tumor growth (FIG. 3) ([1]; gemcitabine 1 mg/kg PO and/or ER-876437 10 mg/kg PO (30 minutes prior)): no effect at all
- TGD (tumor growth delay) ([1]; gemcitabine 1 mg/kg PO and/or ER-876437 10 mg/kg PO (30 minutes prior), delay vs vehicle to reach 342.14 mm^3): 2 days
- gemcitabine remaining ([2]; CDA plus ER-876437 in the incubation mixture, after 7 h): greater than 95%
- inhibition of the effect of CDA on T1/2 of gemcitabine ([2]; Tris-HCl buffer at 37° C.): nearly completely inhibited
- levels of ER-876437 ([2]; after 7 hours of exposure to CDA with gemcitabine): not affected
- Mean Liver wts (g) ± SD ([3]; on autopsy): 2.02 ± 0.07 g
- Mean Spleen wts (g) ± SD ([3]; on autopsy): 0.37 ± 0.04 g
- Mean Survival (days) ± SD ([3]; twice a day (8 hours apart), 4 days): 7.6 ± 0.89 days
- % ILS (Increased Life Span) ([3]; vs vehicle group): 2.70%
